{"source": "patent US6770673B1", "about": "“Therapeutic uses of arglabin in combination with other chemotherapy agents” (priority 1997, dated 2004)", "key": {"[1]": {"tested_on": "Pliss lymphosarcoma", "assay": "Inhibition of tumor growth in implanted tumors", "type": "in vivo, rats"}, "[2]": {"tested_on": "Leucemia P-388", "assay": "Implanted leukemia, inhibition / survival", "type": "in vivo, mice and rats", "conditions": "dose 50 mg/kg"}, "[3]": {"tested_on": "Alveolar Cancer of the liver", "assay": "Inhibition of tumor growth in implanted tumors", "type": "in vivo, mice and rats"}, "[4]": {"tested_on": "Geren's carcinosarcoma", "assay": "Inhibition of tumor growth in implanted tumors", "type": "in vivo, mice and rats", "conditions": "dose 50 mg/kg"}, "[5]": {"tested_on": "Sarcoma-45 resistant to 5-fluorouracil", "assay": "Inhibition of growth of resistant tumour strains", "type": "in vivo, rats"}, "[6]": {"tested_on": "Worker's carcinosarcoma", "assay": "Inhibition of tumor growth in implanted tumors", "type": "in vivo, mice and rats"}, "[7]": {"tested_on": "Sarcoma-45", "assay": "Inhibition of tumor growth in implanted tumors", "type": "in vivo, rats"}, "[8]": {"tested_on": "PC-1", "assay": "Inhibition of tumor growth in implanted tumors", "type": "in vivo, mice and rats", "conditions": "dose 30 mg/kg"}, "[9]": {"tested_on": "M-1 Sarcoma", "assay": "Inhibition of tumor growth in implanted tumors", "type": "in vivo, mice and rats", "conditions": "dose 30 mg/kg"}, "[10]": {"tested_on": "Pliss Lymphosarcoma resistant to prospidine", "assay": "Inhibition of growth of resistant tumour strains; duration of life and metastasis", "type": "in vivo, rats", "conditions": "dose 30 mg/kg"}, "[11]": {"tested_on": "Pliss Lymphosarcoma resistant to leucoeffdine", "assay": "Inhibition of growth of resistant tumour strains; tumor disappearance", "type": "in vivo, rats"}, "[12]": {"tested_on": "Breast Cancer RMC-1", "assay": "Inhibition of tumor growth in implanted tumors", "type": "in vivo, mice and rats", "conditions": "dose 30 mg/kg"}, "[13]": {"tested_on": "Pliss Lymphosarcoma resistant to rubidomycin", "assay": "Inhibition of growth of resistant tumour strains", "type": "in vivo, rats", "conditions": "dose 30 mg/kg"}, "[14]": {"tested_on": "Sarcoma-45 resistant to prospidine", "assay": "Inhibition of growth of resistant tumour strains", "type": "in vivo, rats", "conditions": "dose 30 mg/kg"}, "[15]": {"tested_on": "Sarcoma-45 resistant to rubidomycin", "assay": "Inhibition of growth of resistant tumour strains", "type": "in vivo, rats", "conditions": "dose 30 mg/kg"}}, "data": [{"smiles": "C=C1C(=O)OC2C1CCC(C)(Cl)C1(O)CC(Cl)C(C)(O)C21", "note": "(stereo not shown) [Dichlordihydroxyarglabin (3)]", "values": [{"measurement": "Inhibition of Tumour Growth, % - Pliss lymphosarcoma", "setting": "[1]; dose 50 mg/kg", "value": 29.0, "unit": "%"}, {"measurement": "Inhibition of Tumour Growth, % - Leucemia P-388 PALT", "setting": "[2]", "value": 92.1, "unit": "%"}, {"measurement": "Inhibition of Tumour Growth, % - Alveolar Cancer of the liver", "setting": "[3]; dose 50 mg/kg", "value": 51.0, "unit": "%"}, {"measurement": "Inhibition of Tumour Growth, % - Geren's carcinosarcoma", "setting": "[4]", "value": 71.4, "unit": "%"}, {"measurement": "Inhibition of Tumour Strains Growth, % - Resistant Forms - Sarcoma-45 to 5-fluorouracil", "setting": "[5]; dose 50 mg/kg", "value": 70.6, "unit": "%"}, {"measurement": "Inhibition of Tumour Growth, % - Worker's carcinosarcoma", "setting": "[6]; dose 50 mg/kg", "value": 63.2, "unit": "%"}, {"measurement": "Inhibition of Tumour Growth, % - Sarcoma-45", "setting": "[7]; dose 50 mg/kg", "value": 70.9, "unit": "%"}]}, {"smiles": "CC1=CCC23OC2(C)CCC2C(CN(C)C)C(=O)OC2C13", "note": "(stereo not shown) [Dimethylaminoarglabin (14b), dimethylaminoarglabin]", "values": [{"measurement": "Inhibition of Tumour Growth, % - Pliss lymphosarcoma", "setting": "[1]; dose 30 mg/kg", "value": 78.2, "unit": "%"}, {"measurement": "Inhibition of Tumour Growth, % - Pliss lymphosarcoma", "setting": "[1]; dose 50 mg/kg", "value": 56.0, "unit": "%"}, {"measurement": "Inhibition of Tumour Growth, % - PC-1", "setting": "[8]", "value": 62.1, "unit": "%"}, {"measurement": "Inhibition of Tumour Growth, % - M-1 Sarcoma", "setting": "[9]", "value": 79.9, "unit": "%"}, {"measurement": "Inhibition of Tumour Growth, % - Leucemia P-388 PALT", "setting": "[2]", "value": 80.1, "unit": "%"}, {"measurement": "Inhibition of Tumour Growth, % - Alveolar Cancer of the liver", "setting": "[3]; dose 50 mg/kg", "value": 42.0, "unit": "%"}, {"measurement": "Inhibition of Tumour Strains Growth, % - Resistant Forms - Pliss Lymphosarcoma to prospidine", "setting": "[10]", "value": 52.1, "unit": "%"}, {"measurement": "Inhibition of Tumour Growth, % - Geren's carcinosarcoma", "setting": "[4]", "value": 85.1, "unit": "%"}, {"measurement": "Inhibition of Tumour Strains Growth, % - Resistant Forms - Sarcoma-45 to 5-fluorouracil", "setting": "[5]; dose 50 mg/kg", "value": 52.1, "unit": "%"}, {"measurement": "Inhibition of Tumour Growth, % - Worker's carcinosarcoma", "setting": "[6]; dose 30 mg/kg", "value": 30.0, "unit": "%"}, {"measurement": "Inhibition of Tumour Growth, % - Worker's carcinosarcoma", "setting": "[6]; dose 50 mg/kg", "value": 30.0, "unit": "%"}, {"measurement": "Inhibition of Tumour Growth, % - Sarcoma-45", "setting": "[7]; dose 30 mg/kg", "value": 85.1, "unit": "%"}, {"measurement": "Inhibition of Tumour Growth, % - Sarcoma-45", "setting": "[7]; dose 50 mg/kg", "value": 79.0, "unit": "%"}]}, {"smiles": "CN(C)CC1C(=O)OC2C1CCC1(C)OC13CC1OC1(C)C23", "note": "(stereo not shown) [Dimethylaminoepoxyarglabin (15b), dimethylaminoepoxyarglabin]", "values": [{"measurement": "Inhibition of Tumour Growth, % - Pliss lymphosarcoma", "setting": "[1]; dose 50 mg/kg", "value": 64.6, "unit": "%"}, {"measurement": "Inhibition of Tumour Growth, % - Leucemia P-388 PALT", "setting": "[2]", "value": 51.0, "unit": "%"}, {"measurement": "Inhibition of Tumour Growth, % - Alveolar Cancer of the liver", "setting": "[3]; dose 50 mg/kg", "value": 38.0, "unit": "%"}, {"measurement": "Inhibition of Tumour Growth, % - Geren's carcinosarcoma", "setting": "[4]", "value": 31.4, "unit": "%"}, {"measurement": "Inhibition of Tumour Strains Growth, % - Resistant Forms - Sarcoma-45 to 5-fluorouracil", "setting": "[5]; dose 50 mg/kg", "value": 11.2, "unit": "%"}, {"measurement": "Inhibition of Tumour Growth, % - Worker's carcinosarcoma", "setting": "[6]; dose 50 mg/kg", "value": 43.1, "unit": "%"}, {"measurement": "Inhibition of Tumour Growth, % - Sarcoma-45", "setting": "[7]; dose 50 mg/kg", "value": 58.1, "unit": "%"}]}, {"smiles": "C=C1C(=O)OC2C1CCC1(C)OC13CC1OC1(C)C23", "note": "(stereo not shown) [Epoxyarglabin (2), 1(10), 3(4)-diepoxy-guai-11(13)-en-6,12-olid]", "values": [{"measurement": "Inhibition of Tumour Growth, % - Pliss lymphosarcoma", "setting": "[1]; dose 30 mg/kg", "value": 72.1, "unit": "%"}, {"measurement": "Inhibition of Tumour Growth, % - M-1 Sarcoma", "setting": "[9]", "value": 78.4, "unit": "%"}, {"measurement": "Inhibition of Tumour Growth, % - Alveolar Cancer of the liver", "setting": "[3]; dose 30 mg/kg", "value": 70.4, "unit": "%"}, {"measurement": "Inhibition of Tumour Strains Growth, % - Resistant Forms - Pliss Lymphosarcoma to leucoeffdine", "setting": "[11]; dose 30 mg/kg", "value": 79.8, "unit": "%"}, {"measurement": "Inhibition of Tumour Growth, % - Breast Cancer RMC-1", "setting": "[12]", "value": 59.6, "unit": "%"}, {"measurement": "Inhibition of Tumour Strains Growth, % - Resistant Forms - Sarcoma-45 to 5-fluorouracil", "setting": "[5]; dose 30 mg/kg", "value": 66.0, "unit": "%"}, {"measurement": "Inhibition of Tumour Strains Growth, % - Resistant Forms - Pliss Lymphosarcoma to rubidomycin", "setting": "[13]", "value": 78.0, "unit": "%"}, {"measurement": "Inhibition of Tumour Strains Growth, % - Resistant Forms - Sarcoma-45 to prospidine", "setting": "[14]", "value": 70.4, "unit": "%"}, {"measurement": "Inhibition of Tumour Growth, % - Worker's carcinosarcoma", "setting": "[6]; dose 30 mg/kg", "value": 36.4, "unit": "%"}, {"measurement": "Inhibition of Tumour Strains Growth, % - Resistant Forms - Sarcoma-45 to rubidomycin", "setting": "[15]", "value": 78.6, "unit": "%"}, {"measurement": "Inhibition of Tumour Growth, % - Sarcoma-45", "setting": "[7]; dose 30 mg/kg", "value": 88.8, "unit": "%"}]}, {"smiles": "CN(C)CC1C(=O)OC2C1CCC1(C)OC13CC1OC1(C)C23.Cl", "note": "(stereo not shown) [dimethylaminoepoxyarglabin hydrochloride]", "values": [{"measurement": "Inhibition of Tumour Growth, % - Pliss lymphosarcoma", "setting": "[1]; dose 50 mg/kg", "value": 47.0, "unit": "%"}, {"measurement": "Inhibition of Tumour Growth, % - Leucemia P-388 PALT", "setting": "[2]", "value": 31.2, "unit": "%"}, {"measurement": "Inhibition of Tumour Growth, % - Alveolar Cancer of the liver", "setting": "[3]; dose 50 mg/kg", "value": 29.1, "unit": "%"}, {"measurement": "Inhibition of Tumour Growth, % - Geren's carcinosarcoma", "setting": "[4]", "value": 15.6, "unit": "%"}, {"measurement": "Inhibition of Tumour Strains Growth, % - Resistant Forms - Sarcoma-45 to 5-fluorouracil", "setting": "[5]; dose 50 mg/kg", "value": 13.2, "unit": "%"}, {"measurement": "Inhibition of Tumour Growth, % - Worker's carcinosarcoma", "setting": "[6]; dose 50 mg/kg", "value": 51.4, "unit": "%"}, {"measurement": "Inhibition of Tumour Growth, % - Sarcoma-45", "setting": "[7]; dose 50 mg/kg", "value": 32.4, "unit": "%"}]}, {"smiles": "NC(Cc1ccc(N(CCCl)CCCl)cc1)C(=O)O", "note": "(stereo not shown) [sarcolysin, reference compound]", "values": [{"measurement": "rats with complete disappearance of the tumor", "setting": "[11]; leukofedin resistant Pliss' lymphosarcoma, collateral sensitivity", "value": 60, "unit": "%"}]}]}
